For 21 molecules, T/C results are on record in PubChem BioAssay AID256 (DTP/NCI, 2004).

Values joined by “and” are separate entries in the source; they are usually repeats but may differ in a detail not shown here. Equal entries are not always repeated. Toxic doses and inconclusive results are not listed.

The assay relates to CD2F1 mice, L1210 leukemia ip, survival T/C. In words: NCI In Vivo Anticancer Drug Screen. Data for tumor model L1210 Leukemia (intraperitoneal) in CD2F1 (CDF1) mice. Particulars: higher = longer survival. The gist of the method: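 Antitumor effect is scored in animals hosting a serially transplanted tumor. Values compare compound-dosed animals against vehicle-only controls as a simple quotient.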

Setting [1] is: endpoint: mean survival time, dose: 25.0 mg/kg/injection, schedule: Q01DX009 (ip), vehicle: saline with Tween-80.
The mark [2] stands for this setting: endpoint: mean survival time, dose: 50.0 mg/kg/injection, schedule: Q01DX009 (ip), vehicle: saline with Tween-80.
Setting [3] is: endpoint: mean survival time, dose: 100.0 mg/kg/injection, schedule: Q01DX009 (ip), vehicle: saline with Tween-80.
[4] abbreviates: endpoint: mean survival time, dose: 200.0 mg/kg/injection, schedule: Q01DX009 (ip), vehicle: saline with Tween-80.
[5] abbreviates: endpoint: mean survival time, dose: 100.0 mg/kg/injection, schedule: Q01DX001 (ip), vehicle: saline with Tween-80.
The mark [6] stands for this setting: endpoint: mean survival time, dose: 100.0 mg/kg/injection, schedule: Q04DX003 (ip), vehicle: other.
Where [7] appears, read: endpoint: mean survival time, dose: 400.0 mg/kg/injection, schedule: Q04DX003 (ip), vehicle: other.
The mark [8] stands for this setting: endpoint: mean survival time, dose: 100.0 mg/kg/injection, schedule: Q04DX003 (ip), vehicle: saline with Tween-80.
[9] abbreviates: endpoint: mean survival time, dose: 200.0 mg/kg/injection, schedule: Q04DX003 (ip), vehicle: saline with Tween-80.
Where [10] appears, read: endpoint: mean survival time, dose: 400.0 mg/kg/injection, schedule: Q01DX009 (ip), vehicle: saline with Tween-80.
Where [11] appears, read: endpoint: mean survival time, dose: 400.0 mg/kg/injection, schedule: Q04DX003 (ip), vehicle: saline with Tween-80.
[12] abbreviates: endpoint: mean survival time, dose: 200.0 mg/kg/injection, schedule: Q01DX001 (ip), vehicle: saline with Tween-80.

On to `O=c1c(O)c(-c2cc(O)c(O)c(O)c2)oc2cc(O)cc(O)c12`, for which the T/C is 98 % of control under setting [1], 91 % of control under setting [2], 93 % of control under setting [3] and 95 % of control under setting [4].

With `COc1ccccc1NC1=NCCO1`, the T/C (endpoint: mean survival time, dose: 25.0 mg/kg/injection, schedule: Q04DX002 (ip), vehicle: saline with Tween-80) was 105 % of control; the T/C (endpoint: mean survival time, dose: 50.0 mg/kg/injection, schedule: Q04DX002 (ip), vehicle: saline with Tween-80) is 97 % of control; the T/C under setting [5] was 90 % of control; the T/C (endpoint: mean survival time, dose: 100.0 mg/kg/injection, schedule: Q04DX002 (ip), vehicle: saline with Tween-80) was 94 % of control.

`Clc1ccc(N=C/C=C/c2ccccc2)cc1`: the T/C by setting is: (endpoint: mean survival time, dose: 25.0 mg/kg/injection, schedule: Q01DX009 (ip), vehicle: other) 101 % of control; (endpoint: mean survival time, dose: 50.0 mg/kg/injection, schedule: Q01DX009 (ip), vehicle: other) 97 % of control; (endpoint: mean survival time, dose: 100.0 mg/kg/injection, schedule: Q01DX009 (ip), vehicle: other) 95 % of control; under setting [6], 87 % of control; under setting [7], 89 % of control.

Regarding `C1=CCC(CNc2ncnc3nc[nH]c23)=CC1`, the T/C by setting is: under setting [3], 100 % of control; under setting [8], 98 % of control; under setting [4], 100 % of control; under setting [9], 98 % of control; under setting [10], 88 % of control; under setting [11], 104 % of control.

Regarding `Brc1cnc2n[nH]nc2c1`, the T/C reads like this: (endpoint: mean survival time, dose: 100.0 mg/kg/injection, schedule: Q01DX001 (ip), vehicle: saline) 109 % of control; (endpoint: mean survival time, dose: 200.0 mg/kg/injection, schedule: Q01DX001 (ip), vehicle: saline) 97 % of control; (endpoint: mean survival time, dose: 400.0 mg/kg/injection, schedule: Q01DX001 (ip), vehicle: saline) 97 % of control.

As for `C=CC1=CC(=O)OC1=O`, the T/C reads like this: (endpoint: mean survival time, dose: 1.25 mg/kg/injection, schedule: Q01DX001 (ip), vehicle: saline) 91 % of control; (endpoint: mean survival time, dose: 2.5 mg/kg/injection, schedule: Q01DX001 (ip), vehicle: saline) 88 % of control; (endpoint: mean survival time, dose: 5.0 mg/kg/injection, schedule: Q01DX001 (ip), vehicle: saline) 89 % of control; (endpoint: mean survival time, dose: 10.0 mg/kg/injection, schedule: Q01DX001 (ip), vehicle: saline) 89 % of control.

As to `C/C(=N\O)C1(C)CC=CCC1CO` (stereo unspecified), the T/C is, setting by setting: (endpoint: mean survival time, dose: 100.0 mg/kg/injection, schedule: Q01DX009 (ip), vehicle: saline sonified) 102 % of control; (endpoint: mean survival time, dose: 200.0 mg/kg/injection, schedule: Q01DX009 (ip), vehicle: saline sonified) 96 % of control; (endpoint: mean survival time, dose: 400.0 mg/kg/injection, schedule: Q01DX009 (ip), vehicle: saline sonified) 100 % of control.

As to `CCOC(=O)c1cc(=O)[nH]c2ccc(OC)cc12`, the T/C is, setting by setting: under setting [3], 98 % of control; under setting [4], 104 % of control; under setting [10], 104 % of control.

Take `CCN(CC)CCNc1c2ccc(Cl)cc2nc2c1c(C)nn2C`: the T/C was 95 % of control under setting [8], 100 % of control under setting [9] and 100 % of control under setting [11].

Consider `CC(/C=N\N=C(N)N)=N/N=C(N)N`, for which the T/C (endpoint: median survival time, dose: 5.0 mg/kg/injection, schedule: Q01DX009 (ip), vehicle: saline) is 94 % of control.

Regarding `O=C1c2cscc2C(=O)c2c(Cl)sc(Cl)c21`, the T/C runs as follows: (endpoint: mean survival time, dose: 12.5 mg/kg/injection, schedule: Q04DX003 (ip), vehicle: saline with Tween-80) 96 % of control; under setting [1], 103 % of control; (endpoint: mean survival time, dose: 25.0 mg/kg/injection, schedule: Q04DX003 (ip), vehicle: saline with Tween-80) 98 % of control; under setting [2], 97 % of control; (endpoint: mean survival time, dose: 50.0 mg/kg/injection, schedule: Q04DX003 (ip), vehicle: saline with Tween-80) 90 % of control; under setting [3], 91 % of control. Moreover, the T/C under setting [8] was 100 % of control.

Consider `OC1(c2ccccc2)c2cc(-c3ccccc3)c(-c3ccccc3)cc2C(c2ccccc2)(c2ccccc2)C1(O)c1ccccc1` (stereo unspecified), for which the T/C (endpoint: mean survival time, dose: 50.0 mg/kg/injection, schedule: Q01DX001 (ip), vehicle: saline with Tween-80) was 96 % of control; the T/C under setting [5] is 96 % of control; the T/C under setting [12] was 96 % of control.

In the case of `CCC1(C)CCC2C(CCC3C(C)(C(=O)OC)CCCC23C)C12SCCS2` (stereo unspecified), the T/C was 86 % of control under setting [5]; 89 % of control under setting [12]; 96 % of control (endpoint: mean survival time, dose: 400.0 mg/kg/injection, schedule: Q01DX001 (ip), vehicle: saline with Tween-80).

On to `CCCCSC#N`, for which the T/C reads like this: (endpoint: mean survival time, dose: 7.5 mg/kg/injection, schedule: Q01DX009 (ip), vehicle: saline with Tween-80) 95 % of control; (endpoint: mean survival time, dose: 15.0 mg/kg/injection, schedule: Q01DX009 (ip), vehicle: saline with Tween-80) 100 % of control; (endpoint: mean survival time, dose: 30.0 mg/kg/injection, schedule: Q01DX009 (ip), vehicle: saline with Tween-80) 91 % of control.

As to `FC(F)(F)c1ccc2c(c1)N(CCCN1CCN(CCC3OCCCO3)CC1)c1ccccc1S2`, the T/C is 96 % of control (endpoint: mean survival time, dose: 0.78 mg/kg/injection, schedule: Q01DX009 (ip), vehicle: saline); 96 % of control (endpoint: mean survival time, dose: 1.56 mg/kg/injection, schedule: Q01DX009 (ip), vehicle: saline); 94 % of control (endpoint: mean survival time, dose: 3.12 mg/kg/injection, schedule: Q01DX009 (ip), vehicle: saline); 96 % of control (endpoint: mean survival time, dose: 6.25 mg/kg/injection, schedule: Q01DX009 (ip), vehicle: saline); 103 % of control (endpoint: mean survival time, dose: 12.5 mg/kg/injection, schedule: Q01DX009 (ip), vehicle: saline).

As for `CC(=O)N1CCCCC1`, the T/C is, setting by setting: (endpoint: mean survival time, dose: 25.0 mg/kg/injection, schedule: Q01DX009 (ip), vehicle: saline) 102 % of control; (endpoint: mean survival time, dose: 50.0 mg/kg/injection, schedule: Q01DX009 (ip), vehicle: saline) 96 % of control; (endpoint: mean survival time, dose: 100.0 mg/kg/injection, schedule: Q01DX009 (ip), vehicle: saline) 102 % of control.

For the molecule `O/N=C(\c1ccccc1)C1C(/C(=N/O)c2ccccc2)C1c1ccccc1` (stereo unspecified) (tested in a mixture with another compound), the T/C was 95 % of control under setting [3], 95 % of control under setting [4] and 90 % of control under setting [10].

For `Nc1cccc2cn[nH]c12`, the T/C is 98 % of control under setting [6]; 96 % of control (endpoint: mean survival time, dose: 200.0 mg/kg/injection, schedule: Q04DX003 (ip), vehicle: other); 101 % of control under setting [7].

In the case of `CN1C(=O)CC(c2ccc(NC(=O)CI)cc2)C1=O` (stereo unspecified), the T/C was 92 % of control (endpoint: mean survival time, dose: 6.25 mg/kg/injection, schedule: Q04DX002 (ip), vehicle: saline with Tween-80) and 96 % of control (endpoint: mean survival time, dose: 12.5 mg/kg/injection, schedule: Q04DX002 (ip), vehicle: saline with Tween-80).

As to `COc1cc2c(c(OC)c1OC)-c1ccc(SCc3ccccc3)c(=O)cc1[C@@H](NC(C)=O)CC2`, the T/C is, setting by setting: (endpoint: mean survival time, dose: 1.56 mg/kg/injection, schedule: Q01DX009 (ip), vehicle: Klucel (hydroxypropylcellulose) (HPC)) 103 % of control; (endpoint: mean survival time, dose: 3.12 mg/kg/injection, schedule: Q01DX009 (ip), vehicle: Klucel (hydroxypropylcellulose) (HPC)) 97 % of control; (endpoint: mean survival time, dose: 6.25 mg/kg/injection, schedule: Q01DX009 (ip), vehicle: Klucel (hydroxypropylcellulose) (HPC)) 112 % of control; (endpoint: mean survival time, dose: 12.5 mg/kg/injection, schedule: Q01DX009 (ip), vehicle: Klucel (hydroxypropylcellulose) (HPC)) 121 % of control; (endpoint: mean survival time, dose: 25.0 mg/kg/injection, schedule: Q01DX009 (ip), vehicle: Klucel (hydroxypropylcellulose) (HPC)) 117 % of control.

As for `O=NN(CCCl)C(=O)NCc1ccc[n+]([O-])c1`, the T/C is 152 % of control and 167 % of control (endpoint: mean survival time, dose: 6.25 mg/kg/injection, schedule: Q01DX001 (ip), vehicle: water); 274 % of control and 290 % of control (endpoint: mean survival time, dose: 12.5 mg/kg/injection, schedule: Q01DX001 (ip), vehicle: water); 309 % of control and 324 % of control (endpoint: mean survival time, dose: 25.0 mg/kg/injection, schedule: Q01DX001 (ip), vehicle: water).
